Measurements as given in patent US8722742B2, “Chemical compounds having antiviral activity against Dengue virus and other Flaviviruses” (Centro de Ingenieria Genetica y Biotecnologia, priority 2008, dated 2014).

System: DEN2 virus
Assay: Plaque inhibition assay in Vero cells
Type: cell-based, Dengue virus serotype 2
Conditions: Dengue virus, 120 h
Description: Vero cells were grown in 24-wells plates until the monolayer reached approximately 90% confluence and two washes of the monolayer were done with medium MEM without SFB. Preparations of DEN2 virus equivalent to a multiplicity of infection of 0.1 were preincubated in MEM medium with and without presence of chemical compounds (100 uM) for about 1 hour at room temperature. Then, the virus/compounds mixture and virus/control mixture were incubated with monolayers for 1 hour at 37° C. After finished incubation, the cells were washed again and incubated during 5 days at 37° C. in high-density medium (MEM supplemented with non-essential amino acids, SFB 1%, carboxymethylcellulose 1%) to facilitate formation of lysis plaques. Blue Black Naphtol 0.1% in sodium acetate 0.15 mol/L was used for staining. In each experiment two replics were tested for each point and three independent determinations were done. The percentage of infection inhibition was calculated according to the following expression: […]

Structure (SMILES) | inhibition at 100 µM
O=c1c2cc3c(=O)n(CCCn4ccnc4)c(=O)c3cc2c(=O)n1CCCn1ccnc1 | 0 to 30%
O=C(CC1C(=O)c2ccccc2C1=O)Oc1ccc(-c2ccc(OC(=O)CN3C(=O)c4ccccc4C3=O)cc2)cc1 | 0 to 30%
O=S(=O)(NCc1ccccc1)c1ccc(S(=O)(=O)NC2CCCCC2)cc1 [C-SIJ01002] | 70 to 100%
O=S(=O)(NCc1ccccc1)c1ccc(S(=O)(=O)NC2CC2)cc1 [C-SIJ01003] | 30 to 100%
O=S(=O)(NCc1ccc2c(c1)OCO2)c1ccc(S(=O)(=O)NC2CCCCC2)cc1 [C-SIJ01006] | 70 to 100%
O=S(=O)(NCc1ccc2c(c1)OCO2)c1ccc(S(=O)(=O)NC2CC2)cc1 [C-SIJ01008] | 30 to 100%
O=S(=O)(NCCC1=CCCCC1)c1ccc(S(=O)(=O)NCc2ccc3c(c2)OCO3)cc1 [C-SIJ01009] | 70 to 100%
O=S(=O)(NCc1ccco1)c1ccc(S(=O)(=O)NC2CCCCC2)cc1 [C-SIJ01020] | 70 to 100%
CC(=O)N1CCN(S(=O)(=O)c2ccc(S(=O)(=O)NC3CCCCC3)cc2)CC1 [C-SIJ01023] | 70 to 100%
CCCCNS(=O)(=O)c1ccc(S(=O)(=O)N2CCN(C(C)=O)CC2)cc1 [C-SIJ01026] | 30 to 100%
O=S(=O)(NCCc1ccccc1)c1ccc(S(=O)(=O)N2CCCCC2)cc1 [C-SIJ01031] | 70 to 100%
O=S(=O)(NCc1ccc(F)cc1)c1ccc(S(=O)(=O)N2CCCCC2)cc1 [C-SIJ01033] | 30 to 100%
O=S(=O)(NCC1CC1)c1ccc(S(=O)(=O)N2CCCCC2)cc1 [C-SIJ01034] | 30 to 100%
O=S(=O)(NC(c1ccccc1)c1ccccc1)c1ccc(S(=O)(=O)N2CCCCC2)cc1 [C-SIJ01039] | 70 to 100%
O=S(=O)(NCCO)c1ccc(S(=O)(=O)N2CCCCC2)cc1 [C-SIJ01042] | 70 to 100%
CC(C)CNS(=O)(=O)c1ccc(S(=O)(=O)N2C(C)CCCC2C)cc1 (stereo not shown) [C-SIJ01045] | 30 to 100%
CC1CCCC(C)N1S(=O)(=O)c1ccc(S(=O)(=O)NCCc2ccncc2)cc1 (stereo not shown) [C-SIJ01047] | 70 to 100%
CC1CCCC(C)N1S(=O)(=O)c1ccc(S(N)(=O)=O)cc1 (stereo not shown) [C-SIJ01051] | 30 to 100%
COC(CNS(=O)(=O)c1ccc(S(=O)(=O)N2CCOCC2)cc1)OC [C-SIJ01056] | 70 to 100%
CC(C)(C)C(=O)CNS(=O)(=O)c1ccc(S(=O)(=O)N2CCOCC2)cc1 [C-SIJ01062] | 70 to 100%
O=S(=O)(Nc1ccccc1OC(F)F)c1ccc(S(=O)(=O)N2CCOCC2)cc1 [C-SIJ01066] | 70 to 100%
O=C(CN1C(=O)c2ccccc2S1(=O)=O)Nc1ccc(S(=O)(=O)N2CCCCCC2)cc1 [C-SIJ04078] | 70 to 100%
CCN(Cc1ccccc1)S(=O)(=O)c1ccc(S(=O)(=O)N2CCOCC2)cc1 [C-SIJ06097] | 70 to 100%
NS(=O)(=O)c1ccc(S(=O)(=O)N2CCOCC2)cc1 [C-SIJ06099] | 30 to 100%
O=CN1CCN(S(=O)(=O)c2ccc(S(=O)(=O)N3CCOCC3)cc2)CC1 [C-SIJ06102] | 30 to 100%
CS(=O)(=O)N1CCN(S(=O)(=O)c2ccc(S(=O)(=O)N3CCOCC3)cc2)CC1 [C-SIJ06103] | 70 to 100%
O=C(O)[C@H]1CCCN(S(=O)(=O)c2ccc(S(=O)(=O)N3CCCCC3)cc2)C1 [C-SIJ06111] | 70 to 100%
COc1ccc(/C=N/NC(=O)Cc2ccc([N+](=O)[O-])cc2)cc1OC [C-SIJ12143] | 70 to 100%
